Experimental data from patent US11884906B1, “4D-perfused tumoroid-on-a-chip platform for personalized cancer treatment applications” (University of South Florida, priority 2019, dated 2024).

Assays:
[1] = tested on: HT29 tumoroid cells; test: Drug response of HT29 tumoroids on FiSS, CELLTITER-GLO viability, platform 10 (Chip) vs static system (Control); type: cell-based; conditions: 48 hours drug treatment, microfluidic platform 10 (Chip) compared with static system (Control), FIGS. 14A-14C
Protocol: (§1) FIG. 6 depicts the results of experiments performed on platform 10 described in detail above. In a first step, microfluidic channel layer 14 is cleaned and a scaffold to be grown on platform 10 is washed. Either 3000 cells of HT29, 2000 cells of HCT116, of 3500 cells of LLC are seeded in 100 μL of a culture media 30. After 48 hours, an additional 100 μl of the culture media 30 is added to inlet well 20, and an additional 50 μL of the culture media is added to culture well 21, with no fresh media added to outlet well 22. Approximately 48 hours after the additional media is added, a drug response test is performed. All the culture media 30 is removed from culture well 21, and 300 μL of a drug dissolved media is added to culture well 21 at the control plate. […]
(§2) A test, such as a CELLTITER-GLO® test, is performed 48 hours later to quantify the viable cells in the culture. […] Cell viability was determined using a CELLTITER-GLO® assay (Promega) according to the manufacturer's protocol. Luminescence was measured in a white well-plate in a Bio-Tek Synergy H4 plate reader (BioTek). An average luminescence value for each group was plotted as a percentage of the control group. […]

[2] = tested on: HCT116 tumoroid cells; test: Drug response of HCT116 tumoroids on FiSS, CELLTITER-GLO viability, platform 10 (Chip) vs static system (Control); type: cell-based; conditions: 48 hours drug treatment, microfluidic platform 10 (Chip) compared with static system (Control), FIGS. 15A-15C
Protocol: as §1, §2

SMILES | drug dose required on platform 10 to have the same IC50 as the static systems [1] | drug dose required on platform 10 to have the same IC50 as the static systems [2]
O=C1[O][Pt]2([NH][C@@H]3CCCC[C@H]3[NH]2)[O]C1=O [oxaliplatin] | higher drug dose | higher drug dose
O=c1[nH]cc(F)c(=O)[nH]1 [fluorouracil] | higher drug dose | lower drug dose
